Measured values as given in patent publication US5648336A (University of Colorado, priority 1994, dated 1997).
Where two headings read alike, the source gives them in different places. Square brackets hold non-standard residues; d marks the D form. Ends that are not written are not given here. Peptide text beside a SMILES is read from it. * marks the point of attachment. X1 = N=C(N)NCCC[C@@H](NC(=NC1CCCCC1)NC1CCCCC1)C(=O)*; Oic = O=C(O)[C@@H]1C[C@@H]2CCCC[C@@H]2N1; dIgl = N[C@@H](C(=O)O)C1Cc2ccccc2C1; Igl = N[C@H](C(=O)O)C1Cc2ccccc2C1; Hyp = O=C(O)[C@@H]1C[C@@H](O)CN1; 2Thi = N[C@@H](Cc1cccs1)C(=O)O

Columns and labels:
isolated rat uterus = test system: isolated rat uterus
Text: (§1) A change of one unit of pA2 value represents an order of magnitude change in potency.
(§2) On isolated smooth muscles, agonist potency is given as percent of BK potency; antagonist potency is given as pA2, and is underlined. In blood pressure assays, the number is the dose of peptide in micrograms that causes 50% reduction in the effect of BK intraarterially administered as a bolus mixture in a 500 g male rat; Ag indicates unquantitated agonist activity; Ant indicates unquantitated antagonist activity.

guinea pig ileum = test system: guinea pig ileum
Text: as §1, §2

B1 receptors = target: T1, B1 receptors (Oryctolagus cuniculus, UniProt P48748); experiment: B1 receptor bioassay, rabbit aorta strips contracted with des-Arg9-BK; assay type: cell-based; details: 50% reduction of sustained contraction to 10^-7 M des-Arg9-BK; read-out: Rabbit Aorta p IC50 B1 receptors (converted)
T1 construct: The thorax was opened and the thoracic aorta carefully removed; from tissue; host or cells: rabbit thoracic aorta spiral strips
T1 sequence (P48748 1-352): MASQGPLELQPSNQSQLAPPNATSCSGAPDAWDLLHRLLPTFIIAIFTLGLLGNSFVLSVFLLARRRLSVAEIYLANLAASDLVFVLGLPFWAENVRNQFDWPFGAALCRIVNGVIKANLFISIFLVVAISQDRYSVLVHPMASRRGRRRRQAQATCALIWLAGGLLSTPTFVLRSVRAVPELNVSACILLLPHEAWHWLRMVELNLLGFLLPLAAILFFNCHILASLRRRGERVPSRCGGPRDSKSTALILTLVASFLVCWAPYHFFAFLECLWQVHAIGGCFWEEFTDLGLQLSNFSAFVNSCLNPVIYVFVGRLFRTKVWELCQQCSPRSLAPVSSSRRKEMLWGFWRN
Experimental: Male New Zealand white rabbits, weight range 2-3 kg, were killed by an overdose of pentobarbital i.v. The thorax was opened and the thoracic aorta carefully removed. […] The tissues were placed under 1 gm isometric tension and allowed to equilibrate for 1H. At time 1h, a concentration-effect curve was constructed to the selective B1 agonist des-Arg^9 -BK. This was repeated at time 3 hours. […] Once the contraction was sustained, the compound to be assayed was applied to the tissue bath in a cumulative manner. The concentration of the compound which produced a 50% reduction of the sustained contraction was calculated. The negative logarithm of this concentration was calculated and expressed as the […].

[1] = guinea pig ileum, vs double ED50 dose of bradykinin

| Molecule | Ileum Activity, antagonist potency given as pA2 (guinea pig ileum) | Uterus Activity, antagonist potency given as pA2 (isolated rat uterus) | other results |
| --- | --- | --- | --- |
| N=C(N)NCCC[C@@H](N)C(=O)N[C@@H](CCCNC(=N)N)C(=O)N1CCC[C@H]1C(=O)N1C[C@H](O)C[C@H]1C(=O)NCC(=O)N[C@H](C(=O)N[C@@H](CO)C(=O)N1Cc2ccccc2C[C@@H]1C(=O)N[C@@H](C(=O)N[C@@H](CCCNC(=N)N)C(=O)O)C1Cc2ccccc2C1)C1CCCC1 [Compound 13, DArg-Arg-Pro-Hyp-Gly-Cpg-Ser-DTic-DIglb-Arg] | 6.0 |  | Uterus Activity, agonist potency given as percent of BK potency (isolated rat uterus): 8.6% |
| N=C(N)NCCC[C@@H](N)C(=O)N[C@@H](CCCNC(=N)N)C(=O)N1CCC[C@H]1C(=O)N1C[C@H](O)C[C@H]1C(=O)NCC(=O)N[C@H](C(=O)N[C@@H](CO)C(=O)N1Cc2ccccc2C[C@@H]1C(=O)N(CC(=O)N[C@@H](CCCNC(=N)N)C(=O)O)C1Cc2ccccc2C1)C1CCCC1 [Compound 29, DArg-Arg-Pro-Hyp-Gly-Cpg-Ser-DTic-Nigb-Arg] | 7.6 | 8.1 |  |
| N=C(N)NCCC[C@@H](N)C(=O)N[C@@H](CCCNC(=N)N)C(=O)N1CCC[C@H]1C(=O)N1C[C@H](O)C[C@H]1C(=O)NCC(=O)N[C@H](C(=O)N[C@@H](CO)C(=O)N[C@@H](C(=O)N[C@@H](C(=O)N[C@@H](CCCNC(=N)N)C(=O)O)C1Cc2ccccc2C1)C1CCCC1)C1CCCC1 [Compound 11, DArg-Arg-Pro-Hyp-Gly-Cpg-Ser-DCpg-DIglb-Arg] |  |  | IC50 (B1 receptors): 398 nM |
| N=C(N)NCCC[C@H](NC(=O)[C@@H]1C[C@@H]2CCCC[C@@H]2N1C(=O)[C@H](NC(=O)[C@H](CO)NC(=O)[C@H](Cc1cccs1)NC(=O)CNC(=O)[C@@H]1C[C@@H](O)CN1C(=O)[C@@H]1CCCN1C(=O)[C@H](CCCNC(=N)N)NC(=O)[C@@H](CCCNC(=N)N)NC(=O)C1=CN2CCC1CC2)C1Cc2ccccc2C1)C(=O)O [Compound 59, Dhq-DArg-Arg-Pro-Hyp-Gly-Thi-Ser-DIglb-Oic-Arg] | 7.2 | 8.1 |  |
| Cc1ccc(C[C@H](NC(=O)CNC(=O)[C@@H]2C[C@@H](O)CN2C(=O)[C@@H]2CCCN2C(=O)[C@H](CCCNC(=N)N)NC(=O)[C@H](N)CCCNC(=N)N)C(=O)N[C@@H](CO)C(=O)N[C@@H](C(=O)N2[C@H](C(=O)N[C@@H](CCCNC(=N)N)C(=O)O)C[C@@H]3CCCC[C@@H]32)C2Cc3ccccc3C2)c(C)c1 [Compound 26, DArg-Arg-Pro-Hyp-Gly-DMF-Ser-DIglb-Oic-Arg] | 6.6 | 7.3 |  |
| N=C(N)NCCC[C@@H](N)C(=O)N[C@@H](CCCNC(=N)N)C(=O)N1CCC[C@H]1C(=O)N1C[C@H](O)C[C@H]1C(=O)NCC(=O)N[C@H](C(=O)N[C@@H](CO)C(=O)N[C@@H](C(=O)N1[C@H](C(=O)N[C@@H](CCCNC(=N)N)C(=O)O)C[C@@H]2CCCC[C@@H]21)C1Cc2ccccc2C1)C1CCCC1 [Compound 24, DArg-Arg-Pro-Hyp-Gly-Cpg-Ser-DIglb-Oic-Arg] | 8.1 |  | IC50 (B1 receptors): 427 nM |
| N=C(N)NCCC[C@@H](N)C(=O)N[C@@H](CCCNC(=N)N)C(=O)N1CCC[C@H]1C(=O)N1C[C@H](O)C[C@H]1C(=O)NCC(=O)N[C@@H](Cc1ccccc1)C(=O)N[C@@H](CO)C(=O)N[C@@H](C(=O)N1[C@H](C(=O)N[C@@H](CCCNC(=N)N)C(=O)O)C[C@@H]2CCCC[C@@H]21)C1Cc2ccccc2C1 [Compound 15, DArg-Arg-Pro-Hyp-Gly-Phe-Ser-DIglb-Oic-Arg] (H-[dR]RP[Hyp]GFS[dIgl][Oic]R-OH) | 7.6 | 7.9 | IC50 (B1 receptors): 162 nM |
| N=C(N)NCCC[C@@H](N)C(=O)N[C@@H](CCCNC(=N)N)C(=O)N1CCC[C@H]1C(=O)N1C[C@H](O)C[C@H]1C(=O)NCC(=O)N[C@@H](C(=O)N[C@@H](CO)C(=O)N[C@@H](C(=O)N1[C@H](C(=O)N[C@@H](CCCNC(=N)N)C(=O)O)C[C@@H]2CCCC[C@@H]21)C1Cc2ccccc2C1)C1Cc2ccccc2C1 [Compound 30, DArg-Arg-Pro-Hyp-Gly-DIglb-Ser-DIglb-Oic-Arg] |  |  | IC50 (B1 receptors): > 10000 nM |
| N=C(N)NCCC[C@H](NC(=O)[C@@H]1C[C@@H]2CCCC[C@@H]2N1C(=O)[C@H](NC(=O)[C@H](CO)NC(=O)[C@H](Cc1cccs1)NC(=O)CNC(=O)[C@@H]1C[C@@H](O)CN1C(=O)[C@@H]1CCCN1C(=O)[C@H](CCCNC(=N)N)NC(=O)[C@@H](CCCNC(=N)N)NC(=NC1CCCCC1)NC1CCCCC1)C1Cc2ccccc2C1)C(=O)O [Compound 58, Dcg-DArg-Arg-Pro-Hyp-Gly-Thi-Ser-DIglb-Oic-Arg] (X1-RP[Hyp]G[2Thi]S[dIgl][Oic]R-OH) | 5.4 |  | Uterus Activity, agonist potency given as percent of BK potency (isolated rat uterus): 3.0% |
| N=C(N)NCCC[C@@H](N)C(=O)N[C@@H](CCCNC(=N)N)C(=O)N1CCC[C@H]1C(=O)N1C[C@H](O)C[C@H]1C(=O)NCC(=O)N[C@@H](Cc1ccccc1)C(=O)N[C@@H](CO)C(=O)N[C@H](C(=O)N1[C@H](C(=O)N[C@@H](CCCNC(=N)N)C(=O)O)C[C@@H]2CCCC[C@@H]21)C1Cc2ccccc2C1 [Compound 14, DArg-Arg-Pro-Hyp-Gly-Phe-Ser-Iglb-Oic-Arg] (H-[dR]RP[Hyp]GFS[Igl][Oic]R-OH) | 5.1 | 6.5 |  |
| N=C(N)NCCC[C@@H](N)C(=O)N[C@@H](CCCNC(=N)N)C(=O)N1CCC[C@H]1C(=O)N1C[C@H](O)C[C@H]1C(=O)NCC(=O)N[C@H](C(=O)N[C@@H](CO)C(=O)N1Cc2ccccc2C[C@@H]1C(=O)N[C@H](C(=O)N[C@@H](CCCNC(=N)N)C(=O)O)C1Cc2ccccc2C1)C1CCCC1 [Compound 12, DArg-Arg-Pro-Hyp-Gly-Cpg-Ser-DTic-Iglb-Arg] | 5.1 |  | Uterus Activity, agonist potency given as percent of BK potency (isolated rat uterus): 10.5% |
| N=C(N)NCCC[C@@H](N)C(=O)N[C@@H](CCCNC(=N)N)C(=O)N1CCC[C@H]1C(=O)N1C[C@H](O)C[C@H]1C(=O)NCC(=O)N[C@@H](Cc1cccs1)C(=O)N[C@@H](CO)C(=O)N[C@@H](C(=O)N[C@@H](C(=O)N[C@@H](CCCNC(=N)N)C(=O)O)C1Cc2ccccc2C1)C1CCCC1 [Compound 9, DArg-Arg-Pro-Hyp-Gly-Thi-Ser-DCpg-DIglb-Arg] | 7.2 | 7.4 |  |
| DArg-Arg-Pro-Hyp-Gly-Thi-Ser-Higb-Oic-Arg [Compound 125] |  |  | Uterus Activity, agonist potency given as percent of BK potency (isolated rat uterus; isolated rat uterus): 9.4%; Ileum Activity, antagonist potency given as pA2 (guinea pig ileum; [1]): 6.6 |
| DArg-Arg-Pro-Hyp-Gly-Thi-Ser-DIgl-Iglb-Arg [Compound 19] |  |  | Uterus Activity, agonist potency given as percent of BK potency (isolated rat uterus; isolated rat uterus): 9.1%; Ileum Activity, antagonist potency given as pA2 (guinea pig ileum; [1]): 6.7 |
| RPPGFSPFR [bradykinin, Arg^1 -Pro^2 -Pro^3 -Gly^4 -Phe^5 -Ser^6 -Pro^7 -Phe^8 -Arg^9, reference compound] |  |  | pD2 value (negative logarithm of the dose causing half-maximal contraction) (isolated rat uterus; rat uterus): 7.9; pD2 value (negative logarithm of the dose causing half-maximal contraction) (guinea pig ileum; guinea pig ileum): 7.4 |
| N=C(N)NCCC[C@H](NC(=O)[C@@H]1C[C@@H]2CCCC[C@@H]2N1C(=O)[C@H](NC(=O)[C@H](CO)NC(=O)[C@H](Cc1cccs1)NC(=O)CNC(=O)[C@@H]1C[C@@H](O)CN1C(=O)[C@@H]1CCCN1C(=O)[C@H](CCCNC(=N)N)NC(=O)[C@@H](CCCNC(=N)N)NC(=O)C12CC3CC(CC(C3)C1)C2)C1Cc2ccccc2C1)C(=O)O [Compound 55, Aca-DArg-Arg-Pro-Hyp-Gly-Thi-Ser-DIglb-Oic-Arg] | 8.4 | 9.2 | IC50 (B1 receptors): 269 nM |
| N=C(N)NCCC[C@H](NC(=O)[C@@H]1C[C@@H]2CCCC[C@@H]2N1C(=O)[C@@H](NC(=O)[C@H](CO)NC(=O)[C@H](Cc1cccs1)NC(=O)CNC(=O)[C@@H]1C[C@@H](O)CN1C(=O)[C@@H]1CCCN1C(=O)[C@H](CCCNC(=N)N)NC(=O)[C@@H](CCCNC(=N)N)NC(=O)C12CC3CC(CC(C3)C1)C2)C1Cc2ccccc2C1)C(=O)O [Compound 54, Aca-DArg-Arg-Pro-Hyp-Gly-Thi-Ser-Iglb-Oic-Arg] |  | 5.8 |  |
